Measurements from patent EP4711362A1, “LIGAND TARGETING FIBROBLAST ACTIVATION PROTEIN” (Jiangsu Hengrui Pharmaceuticals Co., Ltd., priority 2023, dated 2024).

Columns and labels:
FAPα enzyme = target: T1, FAPα enzyme (Homo sapiens, UniProt Q12884); assay: FAPα enzyme activity test (Z-Gly-Pro-AMC substrate, fluorescence); assay type: biochemical; conditions: for inhibition at 0.1 µM: read-out: Inhibition rate 100 nM; for IC50 value against FAPα enzyme, times that of the positive drug FAPI-04: relative to FAPI-04
T1 sequence (Q12884 1-760): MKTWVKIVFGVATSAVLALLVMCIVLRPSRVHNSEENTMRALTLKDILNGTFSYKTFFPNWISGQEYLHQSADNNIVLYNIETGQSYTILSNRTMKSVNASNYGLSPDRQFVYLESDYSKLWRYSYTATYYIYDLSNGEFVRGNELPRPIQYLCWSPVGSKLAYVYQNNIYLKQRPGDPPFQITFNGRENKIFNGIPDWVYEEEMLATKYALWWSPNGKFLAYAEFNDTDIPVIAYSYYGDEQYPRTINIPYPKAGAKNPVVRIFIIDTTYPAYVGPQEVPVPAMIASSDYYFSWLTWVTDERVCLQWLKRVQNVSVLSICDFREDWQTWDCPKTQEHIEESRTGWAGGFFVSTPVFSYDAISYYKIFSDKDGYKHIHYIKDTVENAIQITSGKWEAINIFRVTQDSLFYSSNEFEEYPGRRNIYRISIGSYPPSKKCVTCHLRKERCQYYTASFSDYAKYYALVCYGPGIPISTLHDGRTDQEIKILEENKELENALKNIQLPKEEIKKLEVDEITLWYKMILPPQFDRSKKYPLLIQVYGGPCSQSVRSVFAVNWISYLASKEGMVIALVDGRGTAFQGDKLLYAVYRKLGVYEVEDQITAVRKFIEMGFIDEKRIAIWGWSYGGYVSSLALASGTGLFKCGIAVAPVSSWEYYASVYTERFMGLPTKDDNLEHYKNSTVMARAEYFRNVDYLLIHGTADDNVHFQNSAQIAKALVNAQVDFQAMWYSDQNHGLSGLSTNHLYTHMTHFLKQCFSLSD
Experimental: The substrate (Z-Gly-Pro-AMC) was diluted with DMSO to prepare a 0.5 mM stock solution. Before each experiment, the 0.5 mM stock solution was diluted with PBS to 50 µM for later use. The FAPα protein was diluted with PBS to 0.5 ng/µl for later use. The test compounds and positive control were diluted with PBS to a concentration of 100 nM or 200 nM for the determination of single-point inhibition rate. […] The test compounds and positive control were subjected to a 5-fold serial dilution with PBS to obtain 8 gradients for later use, with the highest concentration being 10 µM, and the lowest concentration being […]. Test method: 85 µl of the FAPα dilution and 10 µl of the compound dilution were added to a microplate, uniformly mixed and incubated at 37°C for 10 min. Then, 5 µL of 50 µM substrate was added, uniformly mixed and incubated at 37°C for 10 min. The microplate was read on a microplate reader, with an excitation wavelength of 380 nm and an emission wavelength of 465 nm.

U-87 MG cells = assay: PET imaging test of radiolabelled compounds in U-87 MG tumour-bearing mice; assay type: in vivo, BALB/c nude mice
Experimental: Cell information: U-87 MG cells (Wuhan Pricella Biotechnology Co., Ltd., Cat. No.: CL-0238, Lot No.: YBMIL8BQHO); Culture conditions: U-87 MG cell specific medium (MEM + 10% FBS + 1% P/S); Number of passages: 6-9;
Germline: BALB/c nude mice; age: 4-5 weeks old; Body weight: 15-22 g;
A sufficient quantity of U-87 MG cells was prepared and inoculated into the posterior position of the right forelimb of […] mice in an inoculation volume of 100 µL, containing 50% Matrigel and 4 × 10^6 cells.
The workbench surface was wiped with 75% medical alcohol and covered with a disposable sterile tablecloth. 0.5 mL insulin syringes, alcohol swabs, cotton swabs and a marking pen were prepared in the injection room. The mice were placed in a mouse restrainer, and the tails of the mice were disinfected with alcohol swabs. 0.2-0.5 mL of the formulated test sample was injected into each mouse via the tail vein, with the time of each injection, the activity of the syringe and the activity of the empty syringe recorded. Tumour-bearing mice were anesthetized with isoflurane, then placed in a prone position on small animal PET beds and fixed. PET static image acquisition was performed for 10 min at 0.5 h, 1 h, 2 h and 4 h after administration; a whole-body CT scan was performed before each static scan to obtain distribution images of the labelled compound throughout the body of tumour-bearing mice. PET images at different time points after administration were obtained for each experimental animal. Major organs were selected and delineated, specifically including: parts such as tumour, muscle, bone, lung, brain, liver and kidney. The radioactive accumulation and clearance of the labelled compounds in tumours and non-target tissues of tumour-bearing mice were observed.
Using the same experimental method as in Example 2, the ratio of radioactive accumulation of the labelled compound ^18F-FAPI-42 in tumours to non-target tissues in tumour-bearing mice was observed. Table 4.1 Ratios of 18F-FAPI-42 in tumours to non-target organs (tissues)

Structure (SMILES): N#C[C@@H]1CC(F)(F)CN1C(=O)CNC(=O)c1ccnc2ccc(OCCCN3CCN(C(=O)CN4CCN(CC(=O)O)CCN(CC(=O)O)CCN(CC(=O)O)CC4)CC3)cc12 [FAPI-04]
- inhibition at 0.1 µM (FAPα enzyme; 100 nM compound): 92.3%

Structure (SMILES): N#C[C@@H]1CC(F)(F)CN1C(=O)CNC(=O)c1ccnc2ccc(OCCCN3CCN(C(=O)CN4CCN5CCN(CC4)CC(=O)[O][Al]([18F])[O]C(=O)C5)CC3)cc12 [^18F-FAPI-42]
- Ratio Tumour/gallbladder (U-87 MG cells; 0.5 h): 1.21
- Ratio Tumour/intestine (U-87 MG cells; 0.5 h): 3.14
- Ratio Tumour/gallbladder (U-87 MG cells; 1.5 h): 1.42
- Ratio Tumour/intestine (U-87 MG cells; 1.5 h): 1.28
- Ratio Tumour/gallbladder (U-87 MG cells; 3.0 h): 3.15
- Ratio Tumour/intestine (U-87 MG cells; 3.0 h): 1.19

Structure (SMILES): N#C[C@@H]1CC(F)(F)CN1C(=O)CNC(=O)c1ccnc2ccc(NC(=O)[C@H]3CC[C@H](CNC(=O)CN4CCN(CC(=O)O)CCN(CC(=O)O)CCN(CC(=O)O)CC4)CC3)cc12 [Compound 1, 6-(trans-4-(((2-(4,7,10-tricarboxymethyl-1,4,7,10-tetraazacyclododecan-1-yl)acetyl)amino)methyl)cyclohexan-1-yl)carboxamido-4-((S)-2-(2-cyano-4,4-difluoropyrrolidin-1-yl)-2-oxoethyl)carbamoylquinoline]
- IC50 (FAPα enzyme): 0.72 nM
- inhibition at 0.1 µM (FAPα enzyme; 100 nM compound): 84.1%

Structure (SMILES): N#C[C@@H]1CC(F)(F)CN1C(=O)CNC(=O)c1ccnc2ccc(NC(=O)[C@H]3CC[C@H](CNC(=O)CN4CCN(CC(=O)O)CCN(CC(=O)O)CC4)CC3)cc12 (relative stereo) [Compound 2, 6-(trans-4-(((2-(4,7-dicarboxymethyl-1,4,7-triazacyclononan-1-yl)acetyl)amino)methyl)cyclohexan-1-yl)carboxamido-4-((S)-2-(2-cyano-4,4-difluoropyrrolidin-1-yl)-2-oxoethyl)carbamoylquinoline]
- IC50 value against FAPα enzyme, times that of the positive drug FAPI-04 (FAPα enzyme): 0.71 times

Structure (SMILES): N#C[C@@H]1CC(F)(F)CN1C(=O)CNC(=O)c1ccnc2ccc(NC(=O)C3CCC4(CC3)CN(C(=O)CN3CCN(CC(=O)O)CCN(CC(=O)O)CCN(CC(=O)O)CC3)CCO4)cc12 (stereo partly drawn) [Compound 3, 6-((6r,9r)-N-(2-(4,7,10-tricarboxymethyl-1,4,7,10-tetraazacyclododecan-1-yl)acetyl)-1-oxa-4-azaspiro[5.5]undecan-9-yl)carboxamido-4-((S)-2-(2-cyano-4,4-difluoropyrrolidin-1-yl)-2-oxoethyl)carbamoylquinoline]
- IC50 (FAPα enzyme): 0.57 nM
- Inhibition rate 100 nM (FAPα enzyme; 100 nM compound): 84.70%

Structure (SMILES): N#C[C@@H]1CC(F)(F)CN1C(=O)CNC(=O)c1ccnc2ccc(OCCCN3CCN(C(=O)CN4CCN(CC(=O)[O-])CCN(CC(=O)[O-])CCN(CC(=O)[O-])CC4)CC3)cc12.[68Ga+3] [^68Ga-FAPI-04]
- Ratio Tumour/brain (U-87 MG cells; 0.5 h): 6.36
- Ratio Tumour/gallbladder (U-87 MG cells; 0.5 h): 4.89
- Ratio Tumour/kidney (U-87 MG cells; 0.5 h): 3.35
- Ratio Tumour/liver (U-87 MG cells; 0.5 h): 4.79
- Ratio Tumour/lung (U-87 MG cells; 0.5 h): 4.73
- Ratio Tumour/muscle (U-87 MG cells; 0.5 h): 15.38
- Ratio Tumour/shoulder joint (U-87 MG cells; 0.5 h): 2.62
- Uptake Brain (U-87 MG cells; 0.5 h after administration): 1.16 ± 0.28 % ID/g
- Uptake Gallbladder (U-87 MG cells; 0.5 h after administration): 1.51 ± 0.18 % ID/g
- Uptake Kidney (U-87 MG cells; 0.5 h after administration): 2.20 ± 0.10 % ID/g
- Uptake Liver (U-87 MG cells; 0.5 h after administration): 1.54 ± 0.23 % ID/g
- Uptake Lung (U-87 MG cells; 0.5 h after administration): 1.56 ± 0.45 % ID/g
- Uptake Muscle (U-87 MG cells; 0.5 h after administration): 0.48 ± 0.39 % ID/g
- Uptake Shoulder joint (U-87 MG cells; 0.5 h after administration): 2.82 ± 0.57 % ID/g
- Uptake Tumour (max) (U-87 MG cells; 0.5 h after administration): 13.17 ± 3.28 % ID/g
- Uptake Tumour (mean) (U-87 MG cells; 0.5 h after administration): 7.38 ± 1.41 % ID/g
- Ratio Tumour/brain (U-87 MG cells; 1.0 h): 9.13
- Ratio Tumour/gallbladder (U-87 MG cells; 1.0 h): 5.46
- Ratio Tumour/kidney (U-87 MG cells; 1.0 h): 3.42
- Ratio Tumour/liver (U-87 MG cells; 1.0 h): 5.76
- Ratio Tumour/lung (U-87 MG cells; 1.0 h): 5.81
- Ratio Tumour/muscle (U-87 MG cells; 1.0 h): 13.89
- Ratio Tumour/shoulder joint (U-87 MG cells; 1.0 h): 2.72
- Uptake Brain (U-87 MG cells; 1 h after administration): 0.70 ± 0.09 % ID/g
- Uptake Gallbladder (U-87 MG cells; 1 h after administration): 1.17 ± 0.36 % ID/g
- Uptake Kidney (U-87 MG cells; 1 h after administration): 1.87 ± 0.20 % ID/g
- Uptake Liver (U-87 MG cells; 1 h after administration): 1.11 ± 0.31 % ID/g
- Uptake Lung (U-87 MG cells; 1 h after administration): 1.10 ± 0.12 % ID/g
- Uptake Muscle (U-87 MG cells; 1 h after administration): 0.46 ± 0.10 % ID/g
- Uptake Shoulder joint (U-87 MG cells; 1 h after administration): 2.35 ± 0.44 % ID/g
- Uptake Tumour (max) (U-87 MG cells; 1 h after administration): 10.98 ± 2.02 % ID/g
- Uptake Tumour (mean) (U-87 MG cells; 1 h after administration): 6.39 ± 0.92 % ID/g
- Ratio Tumour/brain (U-87 MG cells; 2.0 h): 8.95
- Ratio Tumour/gallbladder (U-87 MG cells; 2.0 h): 5.34
- Ratio Tumour/kidney (U-87 MG cells; 2.0 h): 3.42
- Ratio Tumour/liver (U-87 MG cells; 2.0 h): 5.71
- Ratio Tumour/lung (U-87 MG cells; 2.0 h): 5.71
- Ratio Tumour/muscle (U-87 MG cells; 2.0 h): 10.21
- Ratio Tumour/shoulder joint (U-87 MG cells; 2.0 h): 2.77
- Uptake Brain (U-87 MG cells; 2 h after administration): 0.65 ± 0.21 % ID/g
- Uptake Gallbladder (U-87 MG cells; 2 h after administration): 1.09 ± 0.36 % ID/g
- Uptake Kidney (U-87 MG cells; 2 h after administration): 1.70 ± 0.17 % ID/g
- Uptake Liver (U-87 MG cells; 2 h after administration): 1.02 ± 0.23 % ID/g
- Uptake Lung (U-87 MG cells; 2 h after administration): 1.02 ± 0.21 % ID/g
- Uptake Muscle (U-87 MG cells; 2 h after administration): 0.57 ± 0.27 % ID/g
- Uptake Shoulder joint (U-87 MG cells; 2 h after administration): 2.10 ± 0.36 % ID/g
- Uptake Tumour (max) (U-87 MG cells; 2 h after administration): 10.38 ± 2.02 % ID/g
- Uptake Tumour (mean) (U-87 MG cells; 2 h after administration): 5.82 ± 1.01 % ID/g
- Ratio Tumour/brain (U-87 MG cells; 4.0 h): 8.20
- Ratio Tumour/gallbladder (U-87 MG cells; 4.0 h): 4.75
- Ratio Tumour/kidney (U-87 MG cells; 4.0 h): 3.34
- Ratio Tumour/liver (U-87 MG cells; 4.0 h): 4.47
- Ratio Tumour/lung (U-87 MG cells; 4.0 h): 5.43
- Ratio Tumour/muscle (U-87 MG cells; 4.0 h): 10.74
- Ratio Tumour/shoulder joint (U-87 MG cells; 4.0 h): 2.59
- Uptake Brain (U-87 MG cells; 4 h after administration): 0.55 ± 0.17 % ID/g
- Uptake Gallbladder (U-87 MG cells; 4 h after administration): 0.95 ± 0.46 % ID/g
- Uptake Kidney (U-87 MG cells; 4 h after administration): 1.35 ± 0.23 % ID/g
- Uptake Liver (U-87 MG cells; 4 h after administration): 1.01 ± 0.29 % ID/g
- Uptake Lung (U-87 MG cells; 4 h after administration): 0.83 ± 0.20 % ID/g
- Uptake Muscle (U-87 MG cells; 4 h after administration): 0.42 ± 0.10 % ID/g
- Uptake Shoulder joint (U-87 MG cells; 4 h after administration): 1.74 ± 0.42 % ID/g
- Uptake Tumour (max) (U-87 MG cells; 4 h after administration): 12.40 ± 0.85 % ID/g
- Uptake Tumour (mean) (U-87 MG cells; 4 h after administration): 4.51 ± 0.28 % ID/g

Structure (SMILES): N#C[C@@H]1CC(F)(F)CN1C(=O)CNC(=O)c1ccnc2ccc(OCCCN3CCN(C(=O)CN4CCN(CC(=O)O)CCN(CC(=O)O)CC4)CC3)cc12 [FAP-42]
- IC50 value against FAPα enzyme, times that of the positive drug FAPI-04 (FAPα enzyme): 2.27 times
